Assay results as given in US20130157860A1, “METHOD OF CONTROLLING A WEED IN A GRAMINEOUS BIOMASS CROP” (SUMITOMO CHEMICAL COMPANY, LIMITED, priority 2011, published 2013).

What was measured:
[1] = system: Setaria faberi, Amaranthus retroflexus, Chenepodium album, and Stellaria media; test: Test Example 1: pre-emergence application, herbicidal activity; format: in vivo; details: pre-emergence application to soil surface, 25 to 1000 g per 1 hectare, greenhouse, evaluated 21 days after treatment
[2] = system: switchgrass, miscanthus, giant reed, reed canarygrass, blue stem, erianthus, napier grass, and spartina; test: Test Example 1: pre-emergence application, phytotoxicity on biomass crops
Method: Pre-emergence application in switchgrass, miscanthus, giant reed, reed canarygrass, blue stem, erianthus, napier grass and spartina
A field soil is filled into a 32 cm×22 cm plastic case having a depth of 8 cm, seeds of switchgrass, miscanthus, giant reed, reed canarygrass, blue stem, erianthus, napier grass, spartina, Setaria faberi, Amaranthus retroflexus, Chenepodium album, and Stellaria media are seeded thereon, and the seeds are covered with about 0.5 cm of a soil.

[3] = system: Echinochloa crus-galli, Digitaria adscendens, Chenopodium album and Abutilon theophrasti; test: Test Example 2: post-emergence application, herbicidal activity; format: in vivo; details: post-emergence application after 2 weeks of cultivation, 25 to 1000 g per 1 hectare, greenhouse, evaluated 21 days after treatment
Method: (§1) A field soil is filled into a 32 cm×22 cm plastic case having a depth of 8 cm, seeds of switchgrass, miscanthus, giant reed, reed canarygrass, blue stem, erianthus, napier grass, spartina, Echinochloa crus-galli, Digitaria adscendens, Chenopodium album and Abutilon theophrasti are seeded thereon, and the seeds are covered with about 0.5 cm of a soil, and cultivated in a greenhouse for 2 weeks.

[4] = system: switchgrass, miscanthus, giant reed, reed canarygrass, blue stem, erianthus, napier grass, and spartina; test: Test Example 2: post-emergence application, phytotoxicity on biomass crops; format: in vivo
Method: as §1

[5] = pre-emergence application to soil surface, 25 to 1000 g per 1 hectare, greenhouse, evaluated 21 days after treatment
[6] = post-emergence application after 2 weeks of cultivation, 25 to 1000 g per 1 hectare, greenhouse, evaluated 21 days after treatment

SMILES	herbicidal activity [1]	phytotoxicity [2, 5]	herbicidal activity [3]	phytotoxicity [4, 6]	phytotoxicity ([2]; in vivo)	phytotoxicity ([4]; in vivo)
CS(=O)(=O)NC(=O)c1cc(Oc2ccc(C(F)(F)F)cc2Cl)ccc1[N+](=O)[O-] [fomesafen]	high herbicidal activity	without causing significant phytotoxicity	high herbicidal activity	–	–	–
CC(C)N(C)S(=O)(=O)NC(=O)c1cc(-n2c(=O)cc(C(F)(F)F)n(C)c2=O)c(F)cc1Cl [saflufenacil]	high herbicidal activity	without causing significant phytotoxicity	high herbicidal activity	without causing a significant phytotoxicity	–	–
C#CCN1C(=O)COc2cc(F)c(N3C(=O)C4=C(CCCC4)C3=O)cc21 [flumioxazin]	high herbicidal activity	without causing significant phytotoxicity	high herbicidal activity	without causing a significant phytotoxicity	–	–
CCOc1cc(Oc2ccc(C(F)(F)F)cc2Cl)ccc1[N+](=O)[O-] [oxyfluorfen]	high herbicidal activity	without causing significant phytotoxicity	high herbicidal activity	without causing a significant phytotoxicity	–	–
C#CCN1C(=O)COc2cc(F)c(-n3c(=O)n(C)c(=S)n(C)c3=O)cc21 [compound represented by the formula (I)]	high herbicidal activity	–	high herbicidal activity	–	without causing significant phytotoxicity	without causing a significant phytotoxicity
Cc1nn(-c2cc(NS(C)(=O)=O)c(Cl)cc2Cl)c(=O)n1C(F)F [sulfentrazone]	high herbicidal activity	–	high herbicidal activity	–	without causing significant phytotoxicity	without causing a significant phytotoxicity
